Results from patent publication EP4667458A1 (Kanaph Therapeutics Inc., priority 2023, dated 2024).

biological target: T1, KRAS^G12C::SOS1 (Homo sapiens, UniProt Q07889); experiment: KRAS G12C::SOS1 protein-protein interaction (PPI) inhibition assay (HTRF binding kit)
T1 sequence (Q07889 1-1333): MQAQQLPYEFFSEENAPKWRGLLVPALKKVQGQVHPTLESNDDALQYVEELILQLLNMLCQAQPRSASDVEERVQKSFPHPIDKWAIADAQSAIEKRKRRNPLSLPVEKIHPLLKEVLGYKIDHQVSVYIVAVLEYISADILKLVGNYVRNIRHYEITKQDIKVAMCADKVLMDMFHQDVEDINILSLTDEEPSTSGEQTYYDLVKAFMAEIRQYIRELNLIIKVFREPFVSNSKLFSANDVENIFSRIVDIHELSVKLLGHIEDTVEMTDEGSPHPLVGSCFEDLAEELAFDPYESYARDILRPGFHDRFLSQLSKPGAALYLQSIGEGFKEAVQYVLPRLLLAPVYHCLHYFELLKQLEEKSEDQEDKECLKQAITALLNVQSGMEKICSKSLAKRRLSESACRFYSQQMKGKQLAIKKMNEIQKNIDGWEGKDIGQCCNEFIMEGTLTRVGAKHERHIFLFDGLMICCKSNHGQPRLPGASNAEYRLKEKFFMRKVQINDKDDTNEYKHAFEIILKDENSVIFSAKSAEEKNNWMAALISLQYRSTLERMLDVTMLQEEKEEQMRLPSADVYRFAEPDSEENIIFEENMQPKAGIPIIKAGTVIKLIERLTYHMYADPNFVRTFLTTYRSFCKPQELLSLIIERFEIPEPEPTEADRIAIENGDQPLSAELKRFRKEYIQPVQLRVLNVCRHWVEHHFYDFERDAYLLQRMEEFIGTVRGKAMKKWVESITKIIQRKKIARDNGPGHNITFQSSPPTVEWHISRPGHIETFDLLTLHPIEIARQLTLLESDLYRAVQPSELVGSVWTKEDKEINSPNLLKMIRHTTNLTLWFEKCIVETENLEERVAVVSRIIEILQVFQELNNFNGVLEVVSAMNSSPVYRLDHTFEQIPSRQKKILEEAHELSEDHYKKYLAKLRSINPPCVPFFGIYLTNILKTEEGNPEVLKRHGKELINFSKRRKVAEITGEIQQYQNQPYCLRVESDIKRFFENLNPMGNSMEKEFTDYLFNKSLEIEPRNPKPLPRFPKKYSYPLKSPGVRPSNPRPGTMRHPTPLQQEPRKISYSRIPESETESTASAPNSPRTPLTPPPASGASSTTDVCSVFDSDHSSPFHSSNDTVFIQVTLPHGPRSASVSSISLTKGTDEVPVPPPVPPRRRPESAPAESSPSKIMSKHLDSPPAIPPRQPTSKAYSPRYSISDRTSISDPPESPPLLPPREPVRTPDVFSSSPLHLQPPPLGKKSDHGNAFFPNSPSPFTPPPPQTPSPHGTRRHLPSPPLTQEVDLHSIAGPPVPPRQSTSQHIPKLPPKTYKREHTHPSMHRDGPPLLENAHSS

Structure (SMILES) | IC50 [µM]
C[C@@H](NC(=O)c1ccc(=O)n(-c2cccc(-c3ccnn3C)c2)c1)c1cc(N)cc(C(F)(F)F)c1 [Example 321, N-[(1R)-1-[3-amino-5-(trifluoromethyl)phenyl]ethyl]-1-[3-(2-methylpyrazol-3-yl)phenyl]-6-oxo-pyridine-3-carboxamide] | < 1
C[C@@H](NC(=O)c1ccc(=O)n(-c2cccc(-c3ncn(C)n3)c2)n1)c1cc(N)cc(C(F)(F)F)c1 [Example 323, N-[(1R)-1-[3-amino-5-(trifluoromethyl)phenyl]ethyl]-1-[3-(1-methyl-1,2,4-triazol-3-yl)phenyl]-6-oxo-pyridazine-3-carboxamide] | < 1
Cc1ncccc1-c1cccc(-n2nc(C(=O)N[C@H](C)c3cc(N)cc(C(F)(F)F)c3)ccc2=O)c1 [Example 324, N-[(1R)-1-[3-amino-5-(trifluoromethyl)phenyl]ethyl]-1-[3-(2-methyl-3-pyridyl)phenyl]-6-oxo-pyridazine-3-carboxamide] | < 1
C[C@@H](NC(=O)c1ccc(=O)n(-c2cccc(-c3ccccn3)c2)n1)c1cc(N)cc(C(F)(F)F)c1 [Example 325, N-[(1R)-1-[3-amino-5-(trifluoromethyl)phenyl]ethyl]-6-oxo-1-[3-(2-pyridyl)phenyl]pyridazine-3-carboxamide] | < 1
C[C@@H](NC(=O)c1ccc(=O)n(-c2cccc(-c3cnnn3C)c2)c1)c1cc(N)cc(C(F)(F)F)c1 [Example 326, N-[(1R)-1-[3-amino-5-(trifluoromethyl)phenyl]ethyl]-1-[3-(3-methyltriazol-4-yl)phenyl]-6-oxo-pyridine-3-carboxamide] | < 1
CCn1nncc1-c1cccc(-n2nc(C(=O)N[C@H](C)c3cc(N)cc(C(F)(F)F)c3)ccc2=O)c1 [Example 327, N-[(1R)-1-[3-amino-5-(trifluoromethyl)phenyl]ethyl]-1-[3-(3-ethyltriazol-4-yl)phenyl]-6-oxo-pyridazine-3-carboxamide] | < 1
C[C@@H](NC(=O)c1ccc(=O)n(-c2cccc(-c3ncnn3C)c2)n1)c1cc(N)cc(C(F)(F)F)c1 [Example 328, N-[(1R)-1-[3-amino-5-(trifluoromethyl)phenyl]ethyl]-1-[3-(2-methyl-1,2,4-triazol-3-yl)phenyl]-6-oxo-pyridazine-3-carboxamide] | < 1
C[C@@H](NC(=O)c1ccc(=O)n(-c2cccc(-c3ccn[nH]3)c2)n1)c1cc(N)cc(C(F)(F)F)c1 [Example 329, N-[(1R)-1-[3-amino-5-(trifluoromethyl)phenyl]ethyl]-6-oxo-1-[3-(1H-pyrazol-5-yl)phenyl]pyridazine-3-carboxamide] | < 1
C[C@@H](NC(=O)c1ccc(=O)n(-c2cccc(-c3ccn(C)n3)c2)n1)c1cccc(C(F)(F)CO)c1F [Example 330, N-[(1R)-1-[3-(1,1-difluoro-2-hydroxy-ethyl)-2-fluoro-phenyl]ethyl]-1-[3-(1-methylpyrazol-3-yl)phenyl]-6-oxo-pyridazine-3-carboxamide] | < 1
C[C@@H](NC(=O)c1ccc(=O)n(-c2cccc(-c3ccn(C)n3)c2)n1)c1cc(N)cc(C(F)(F)F)c1 [Example 331, N-[(1R)-1-[3-amino-5-(trifluoromethyl)phenyl]ethyl]-1-[3-(1-methylpyrazol-3-yl)phenyl]-6-oxo-pyridazine-3-carboxamide] | < 1
C[C@@H](NC(=O)c1ccc(=O)n(-c2cccc(-c3ccnn3C)c2)n1)c1cccc(C(F)(F)CO)c1F [Example 332, N-[(1R)-1-[3-(1,1-difluoro-2-hydroxy-ethyl)-2-fluoro-phenyl]ethyl]-1-[3-(2-methylpyrazol-3-yl)phenyl]-6-oxo-pyridazine-3-carboxamide] | < 1
C[C@@H](NC(=O)c1ccc(=O)n(-c2cccc(-c3ccnn3C)c2)n1)c1cc(N)cc(C(F)(F)F)c1 [Example 333, N-[(1R)-1-[3-amino-5-(trifluoromethyl)phenyl]ethyl]-1-[3-(2-methylpyrazol-3-yl)phenyl]-6-oxo-pyridazine-3-carboxamide] | < 1
C[C@@H](NC(=O)c1ccc(=O)n(-c2cccc(-c3cnn(C)c3)c2)n1)c1cc(N)cc(C(F)(F)F)c1 [Example 334, N-[(1R)-1-[3-amino-5-(trifluoromethyl)phenyl]ethyl]-1-[3-(1-methylpyrazol-4-yl)phenyl]-6-oxo-pyridazine-3-carboxamide] | < 1
C[C@@H](NC(=O)c1ccc(=O)n(-c2cccc(-c3cnnn3C)c2)c1)c1cccc(C(F)(F)CO)c1F [Example 335, N-[(1R)-1-[3-(1,1-difluoro-2-hydroxy-ethyl)-2-fluoro-phenyl]ethyl]-1-[3-(3-methyltriazol-4-yl)phenyl]-6-oxo-pyridine-3-carboxamide] | < 1

Now from value to compound:

IC50 [µM] | Structure (SMILES)
< 1 | C[C@@H](NC(=O)c1ccc(=O)n(-c2cccc(-c3nccs3)c2)n1)c1cccc(C(F)(F)CO)c1F [Example 336, N-[(1R)-1-[3-(1,1-difluoro-2-hydroxy-ethyl)-2-fluoro-phenyl]ethyl]-6-oxo-1-(3-thiazol-2-ylphenyl)pyridazine-3-carboxamide]
< 1 | C[C@@H](NC(=O)c1ccc(=O)n(-c2cccc(-c3nccs3)c2)n1)c1cc(N)cc(C(F)(F)F)c1 [Example 337, N-[(1R)-1-[3-amino-5-(trifluoromethyl)phenyl]ethyl]-6-oxo-1-(3-thiazol-2-ylphenyl)pyridazine-3-carboxamide]
< 1 | C[C@@H](NC(=O)c1ccc(=O)n(-c2cccc(-c3cccnc3)c2)n1)c1cc(N)cc(C(F)(F)F)c1 [Example 338, N-[(1R)-1-[3-amino-5-(trifluoromethyl)phenyl]ethyl]-6-oxo-1-[3-(3-pyridyl)phenyl]pyridazine-3-carboxamide]
< 1 | C[C@@H](NC(=O)c1ccc(=O)n(-c2cccc(-c3cncs3)c2)n1)c1cccc(C(F)(F)CO)c1F [Example 339, N-[(1R)-1-[3-(1,1-difluoro-2-hydroxy-ethyl)-2-fluorophenyl]ethyl]-6-oxo-1-(3-thiazol-5-ylphenyl)pyridazine-3-carboxamide]
< 1 | C[C@@H](NC(=O)c1ccc(=O)n(-c2cccc(-c3cnn(C)c3)c2)n1)c1cccc(C(F)(F)CO)c1F [Example 340, N-[(1R)-1-[3-(1,1-difluoro-2-hydroxy-ethyl)-2-fluoro-phenyl]ethyl]-1-[3-(1-methylpyrazol-4-yl)phenyl]-6-oxo-pyridazine-3-carboxamide]
< 1 | C[C@@H](NC(=O)c1ccc(=O)n(-c2cccc(-c3cncs3)c2)n1)c1cc(N)cc(C(F)(F)F)c1 [Example 341, N-[(1R)-1-[3-amino-5-(trifluoromethyl)phenyl]ethyl]-6-oxo-1-(3-thiazol-5-ylphenyl)pyridazine-3-carboxamide]
< 1 | C[C@@H](NC(=O)c1ccc(=O)n(-c2cccc(-c3ccno3)c2)n1)c1cc(N)cc(C(F)(F)F)c1 [Example 342, N-[(1R)-1-[3-amino-5-(trifluoromethyl)phenyl]ethyl]-1-(3-isoxazol-5-ylphenyl)-6-oxo-pyridazine-3-carboxamide]
< 1 | C[C@@H](NC(=O)c1ccc(=O)n(-c2cccc(-c3cnco3)c2)n1)c1cc(N)cc(C(F)(F)F)c1 [Example 343, N-[(1R)-1-[3-amino-5-(trifluoromethyl)phenyl]ethyl]-1-(3-oxazol-5-ylphenyl)-6-oxo-pyridazine-3-carboxamide]
